In US20130053435A1, “Methods of Treating Alcohol Intoxication, Alcohol Use Disorders and Alcohol Abuse Which Comprises the Administration of Dihydromyricetin” (priority 2011, published 2013):
Where two headings read alike, the source gives them in different places.

Tests used:
[1] = system: benzodiazepine site of GABAARs; assay: [3H]flunitrazepam binding in rat cortical membrane homogenates; conditions: comparative experiments
Method: Standard procedures for preparation of rat cortical membranes for radioligand binding assays were conducted as previously described with modifications in speed and number of centrifugation and washes, and buffer compositions. […] Naïve rat cortex was dissected from brain and homogenized in 0.32 M sucrose, 10 mM HEPES buffer (pH 7.4), and centrifuged at 650×g, 4° C. The subsequent supernatant was centrifuged at 150,000×g to collect the desired membrane-containing pellet. The pellet was washed and centrifuged two more times, first using ice-cold water and second using membrane buffer containing 50 mM KH2PO4, 1 mM EDTA, 2 mM benzamidine HCl, 0.5 mM DTT, 0.1 mM benzethonium HCl, 0.01% bacitracin, 0.2 PMSF (pH 7.4), and the resulting pellet was frozen. On the day of binding assay, the pellet was homogenized in assay buffer containing 50 mM KH2PO4, 1 mM EDTA, 200 mM KCl (pH 7.4) and centrifuged, and resuspended in fresh assay buffer to a final protein concentration of 1 mg/ml. […] Specific binding was defined as the total amount bound (zero unlabeled ligand) minus the binding in the presence of 10 μM final concentration flurazepam (Sigma). Data was analyzed with GraphPad Prism 4.0 Software (San Diego, Calif.) to determine IC50 (One-site competition equation) and Hill slope (Sigmoidal Dose-Response equation). Experiments were conducted in triplicate.

GABAARs [2] = system: T1, GABAARs; assay: Whole-cell patch-clamp, DGCs in hippocampal slices, acute drug application; type: cell-based, rat; conditions: in the presence of 60 mM EtOH, rat hippocampal slices
T1 construct: other: in the presence of 60 mM EtOH, rat hippocampal; shift of the GABA concentration-response curve
Method: (§1) Transverse slices (400 μm) of dorsal hippocampus were obtained with a Vibratome (VT 100, Technical Products International, St. Louis, Mo.) and standard techniques known in the art. Slices were continuously perfused with artificial cerebrospinal fluid (ACSF).
(§2) Signals were recorded in voltage-clamp mode with a […] amplifier (Molecular Devices, Sunnyvale, Calif.). Whole cell access resistances were in the range of <25 MΩ before electrical compensation by about 70%. During voltage-clamp recordings, access resistance was monitored by measuring the size of the capacitative transient in response to a 5 mV step command and the data were abandoned if changes >20% were encountered. At least 10 min was allowed for equilibration of the pipette solution with the intracellular milieu before commencing mIPSC recordings.
(§3) Data were analyzed using the Clampfit (Version 9.0, Molecular Devices) and the MiniAnalysis Program (versions 6.0.7, Synaptosoft, Decatur, Ga.).
(§4) The MiniAnalysis program (Synaptosoft, Decatur, Ga.) was used to analyze mIPSCs. Itonic is the averaged baseline currents of a given recording period. Itonic amplitude was calculated as the difference between the holding currents measured before and after picrotoxin (100 μM) or bicuculline (10 μM). […] Briefly, the recordings were low-pass filtered off-line (Clampfit software) at 2 kHz. The mIPSCs were detected (Mini Analysis Program, version 6.0.7) with threshold criteria of 8 pA amplitude and 20 pA*ms charge transfer. The frequency of mIPSCs was determined from all automatically detected events in a given 100 s recording period. For kinetic analysis, only single event mIPSCs with a stable baseline, sharp rising phase (10 to 90% rise time), and exponential decay were chosen during visual inspection of the recording trace. Double and multiple peak mIPSCs were excluded. At least 100 individual mIPSC events were recorded under each experimental condition. The mIPSC kinetics was obtained from analysis of the averaged chosen single events aligned with half rise time in each cell. Decay time constants were obtained by fitting a double exponential to the falling phase of the averaged mIPSCs. Itonic magnitudes were obtained from the averaged baseline current of a given recording period. Itonic amplitude was calculated as the difference between the holding currents measured before and after the application of picrotoxin (50 μM) or bicuculline (10 μM). […] The investigator performing the recordings and mIPSC analysis was blind to the treatment (vehicle, EtOH, E+D, or D) that the rats received.
(§5) As performed previously, whole-cell patch-clamp recordings in dentate gyms granule cells (DGCs) from hippocampal slices in vitro were conducted.

GABAARs [3] = system: T2, GABAARs; assay: as above; type: cell-based, rat; conditions: comparative experiments, rat hippocampal slices
T2 construct: DHM-enhanced Itonic; EC50 on GABAAR-mediated Itonic; other: control (vehicle) cultured neurons, DIV14; other: cultured neurons with EtOH exposure/withdrawal (60 mM, 30 min, 24 hr); EtOH-potentiated Itonic; GABAAR-mediated Ito
Method: as §1, §2, §3, §4, §5

GABAARs [4] = system: T3, GABAARs; assay: as above; type: cell-based, rat; conditions: comparative experiments, rat hippocampal slices
T3 construct: DHM-enhanced mIPSCs; other: control (vehicle) cultured neurons, DIV14; other: cultured neurons with EtOH exposure/withdrawal (60 mM, 30 min, 24 hr); EtOH-potentiated mIPSCs; effect on post-synaptic currents (mIPSCs); other: comparative experiments, rat hippocampal slices
Method: as §1, §2, §3, §4, §5

[5] = system: EtOH-induced LORR in rats
Method: See Kakihana R, et al. (1966) Science 154(756):1574-1575). Briefly, after drug injection, rats were placed in the supine position in a V-shaped support. LORR onset time was taken from the endpoint of drug injection (i.p.). LORR duration ended when the animal was able to flip over three times in 30 s. LORR assays were blindly performed. LORR durations were reported as mean (min)±SEM.
Further LORR assays were conducted as follows.
Additional pre-treatment and post-treatment experiments were also conducted.
See Hunkeler, W., et al. (1981) Nature 290:514-516.

GABAARs [6] = system: T2, GABAARs; assay: Whole-cell patch-clamp, cultured hippocampal neurons, acute drug application; type: cell-based, rat; conditions: DHM 1 μM + 10 μM flumazenil
Method: (§6) Hippocampal neurons from embryonic day 18 rats were prepared by papain dissociation (Worthington Biochemical, Lakewood, N.J.) and cultured in neurobasal medium and B27 supplement (Invitrogen). Cultures were kept at 37° C. in a 5% CO2 humidified incubator as described previously. See Shen, Y., et al. (2011) Mol Pharmacol 79:432-442.
(§7) Hippocampal neurons from embryonic day 18 SD rats were prepared by papain dissociation (Worthington Biochemical, Lakewood, N.J.) and cultured in neurobasal medium (Invitrogen) and B27 supplement as previously reported. See Stowell J N and Craig A M (1999) Neuron 22(3):525-536. Briefly, embryos were removed from maternal rats anesthetized with isoflurane and euthanized by decapitation. Hippocampus were dissected and placed in Ca^2+- and Mg^2+-free HEPES-buffered Hank's buffered salt solution (pH 7.45). Tissues were dissociated by papain digestion followed by trituration through a Pasteur pipette and papain inhibitor treatment. Cells were pelleted and resuspended in neurobasal medium containing 2% B27 serum-free supplement, 100 U/ml penicillin, 100 μg/ml streptomycin, 0.5 mM glutamine (all from Invitrogen), and 10 μM glutamate (Sigma).
(§8) Dissociated neurons were then plated at a density of 0.3×10^5 cells/cm^2 onto 12 mm round coverslips in 24-well plates (for patch-clamp recording) and/or at a density of 0.5×10^5 cells/cm^2 in 6-well plates (for Western blot and biotinylation assays) coated with poly-D-lysine (Sigma, 50 μg/ml). Cultures were kept at 37° C. in a 5% CO2 humidified incubator. Thereafter, one third to half of the medium was replaced twice a week with neurobasal culture medium containing 2% B27 supplement, and 0.5 mM glutamine.
(§9) Control neurons were treated with corresponding vehicle as same procedure as EtOH-treated neurons. The concentration of 60 mM EtOH was selected in view of prior experiments. See Liang J et al (2007). Specifically, the concentration of 60 mM EtOH used to treat cultured neurons was chosen to match blood levels measured in adult rats after intoxication with gavage of 5 g/kg, which produced about 60 mM blood peak plasma [EtOH] lasting for about 2 to 3 hr and induced significant plasticity in GABAARs and tolerance.
(§10) Then, immediately before electrophysiological recording, cells grown on coverslips were transferred to a perfusion chamber (Warner Instruments) and visualized with an inverted microscope (TE200, Nikon). Whole-cell patch-clamp recordings were obtained from cultured neurons under voltage-clamp mode at room temperature (22-25° C.), at a holding potential of −70 mV. Cells were perfused with an extracellular solution (137 mM NaCl, 5 mM KCl, 2 mM CaCl2, 1 mM MgCl2, 20 mM glucose and 10 mM HEPES (310-320 Osm, pH adjusted to 7.40 with NaOH)). Glass pipettes were filled with the same internal solution as that in slice recordings, with an input resistance of 4-7 MΩ. GABAAR-mediated mIPSCs were recorded using the same pharmacological method as mentioned above. […] Electrical signals were amplified using a Multiclamp 200 B amplifier (Molecular Devices, USA). After establishing the whole-cell configuration, at least 10 min were allowed to elapse before the application of drug to allow the membrane patch to stabilize and exchange of ions between the recording electrode and the cytosol to occur. Data were acquired with pClamp software (Version 10.0, Molecular Devices, USA), digitized at 20 kHz (Digidata 1440A, Molecular Devices), and analyzed using the Clampfit software (Version 10.0, Molecular Devices) and the Mini Analysis Program (versions 6.0.7, Synaptosoft, Decatur, Ga.) using methods known in the art. See Hamann M, et al. (2002) Neuron 33(4):625-633; Stell B M and Mody I (2002) J Neurosci 22(10): RC223; and Liang (2007).

GABAARs [7] = system: T3, GABAARs; assay: as above; type: cell-based, rat; conditions: DHM 1 μM + 10 μM flumazenil
Method: as §6, §7, §8, §9, §10

With O=c1c(O)c(-c2cc(O)c(O)c(O)c2)oc2cc(O)cc(O)c12 [myricetin] the “binding to GABAARs in [3H]flunitrazepam binding assay” value (“binding to GABAARs” for short) [1] was “do not bind”.
For O=c1c(O)c(-c2ccc(O)c(O)c2)oc2cc(O)cc(O)c12 [quercetin, reference compound], the “block of EtOH potentiation of GABAAR-mediated Itonic and mIPSCs” value (GABAARs [2]) was “do not”, the “effect on extrasynaptic GABAAR-mediated tonic current (Itonic)” value (GABAARs [3]) was “no effect” and the “effect on post-synaptic currents (mIPSCs)” value (GABAARs [4]) was “no effect”. The “binding to GABAARs” value [1] was “do not bind”.
In the case of O=c1c(-c2ccc(O)cc2)coc2cc(O)cc(O)c12 [genistein], the “binding to GABAARs” value [1] is reported as “do not bind”.
For O=c1c(-c2ccc(O)cc2)coc2c([C@@H]3O[C@H](CO)[C@@H](O)[C@H](O)[C@H]3O)c(O)ccc12 [puerarin], the “binding to GABAARs” value [1] was “do not bind”.
In the case of O=c1c(-c2ccc(O)cc2)coc2cc(O[C@@H]3O[C@H](CO)[C@@H](O)[C@H](O)[C@H]3O)ccc12 [daidzin, reference compound], the “block of EtOH potentiation of GABAAR-mediated Itonic and mIPSCs” value (GABAARs [2]) is reported as “do not”, the “effect on extrasynaptic GABAAR-mediated tonic current (Itonic)” value (GABAARs [3]) is reported as “no effect” and the “effect on post-synaptic currents (mIPSCs)” value (GABAARs [4]) is reported as “significantly potentiated”. For the same compound, the “binding to GABAARs” value [1] was “bind GABAARs”.
CCOC(=O)c1ncn2c1CN(C)C(=O)c1cc(F)ccc1-2 [flumazenil, reference compound] was tested, and the LORR duration ([5]; flumazenil 10 mg/kg + DHM 3 mg/kg + EtOH) was 56.1 ± 4.6 min, the LORR duration ([5]; flumazenil 10 mg/kg + DHM 10 mg/kg + EtOH) was 29.3 ± 4.8 min and the LORR duration ([5]; flumazenil 10 mg/kg co-injected with EtOH, no DHM) was 71.1 ± 4.8 min. The LORR duration ([5]; flumazenil 30 mg/kg + DHM 3 mg/kg + EtOH) was 58.2 ± 3.9 min, the “DHM-enhanced Itonic” value (GABAARs [6]) was 143.0±3.2% and the “DHM-enhanced mIPSCs” value (GABAARs [7]) was 125.7±3.9%.
For O=c1c(-c2ccc(O)cc2)coc2cc(O)ccc12 [daidzein], the “binding to GABAARs” value [1] was “bind GABAARs”.
